{"source": "paper PMC11817060", "about": "“Optimizing Therapeutics for Intratumoral Cancer Treatments: Antiproliferative Vanadium Complexes in Glioblastoma” (International Journal of Molecular Sciences, 2025)", "key": {"[1]": {"system": "T98G (glioblastoma multiforme) cells", "assay": "MTT cell viability assay (72 h), fresh or aged solutions, T98G", "format": "cell-based, human", "details": "72 h incubation", "description": "(§1) For viability experiments, the cells were seeded in 96-well plates at an initial density of 1.0 × 10^3 (T98G) or 3.0 × 10^3 (SVG p12) viable cells per well in 100 μL medium and left to attach overnight.\n(§2) For all cell assays, freshly prepared stock solutions of the V(V) complexes (10 mM in DMSO) were used. […] The same concentration of DMSO was used in the control experiments. Stock solutions of Na3VO4 (10 mM in MilliQ H2O) and cisplatin (1.0 mM in phosphate-buffered saline) were prepared on the day of the experiments. […] The treatment complexes were applied in a series of nine two-fold dilutions, starting from 100 μM V, plus the vehicle control. Each treatment was composed of six replicate wells with cells and two background wells without cells but containing the same compounds. […] (1.0 mg/mL in complete medium), and incubation was continued for 4–6 h. The medium was then removed, the blue formazan crystals were dissolved in 0.10 mL per well of DMSO, and the absorbance at 600 nm was measured with a Victor V3 plate reader."}, "[2]": {"system": "SVG p12 (immortalized non-cancer brain astroglia) cells", "assay": "MTT cell viability assay (72 h), fresh or aged solutions, SVG p12", "format": "cell-based, human", "details": "for IC50: 72 h incubation", "description": "as §1, §2"}, "[3]": {"details": "Homo sapiens, T98G, pre-incubated with medium for 24 h at 310 K before addition to cells (B), read-out: IC50 (T98G), aged solutions (B)"}}, "note": "Like-named read-outs stand apart in the source and are kept apart here.", "data": [{"smiles": "OCCNCC/N=C/c1ccccc1O", "note": "[Compound H2SHED, N-(salicylideneaminato)-N′-(2-hydroxyethyl)-1,2-ethanediamine]", "values": [{"measurement": "IC50", "setting": "[1]; [3]", "value": "> 100", "unit": "µM"}]}, {"smiles": "CC(C)c1cc(O)c(O)c(C(C)C)c1", "note": "[DIPCATH2, 3,5-di-iso-propyl-catechol]", "values": [{"measurement": "IC50", "setting": "[1]; [3]", "value": "54 ± 8", "unit": "µM"}]}, {"smiles": "CC(C)(C)c1cc(O)c(O)c(C(C)(C)C)c1", "note": "[DTBH2, 3,5-di-tert-butylcatechol]", "values": [{"measurement": "IC50", "setting": "[1]; [3]", "value": "26 ± 3", "unit": "µM"}]}, {"smiles": "[Na+].[Na+].[Na+].[O]=[V]([O-])([O-])[O-]", "note": "[Na3VO4]", "values": [{"measurement": "IC50", "setting": "[2]; pre-incubated with medium for 24 h at 310 K before addition to cells (B), read-out: IC50 (SVG p12), aged solutions (B)", "value": "48 ± 4", "unit": "µM"}, {"measurement": "Effect of subtoxic V(V) concentrations on cell viability", "setting": "[2]; SVG p12, 72 h assay, aged in the medium for 24 h, not observed in T98G", "value": "increase in cell viability"}, {"measurement": "IC50", "setting": "[1]; pre-incubated with medium for 24 h at 310 K before addition to cells (B), read-out: IC50 (T98G), aged solutions (B)", "value": "40 ± 3", "unit": "µM"}]}, {"smiles": "CC(C)c1cc(C(C)C)c(C(C)C)c(O)c1O", "note": "[TIPCATH2, 3,4,6-tri-iso-propyl catechol]", "values": [{"measurement": "IC50", "setting": "[1]; [3]", "value": "54 ± 7", "unit": "µM"}]}, {"smiles": "N.N.[Cl][Pt][Cl]", "note": "[cisplatin]", "values": [{"measurement": "IC50", "setting": "[2]; fresh solutions added to cells within 1 min (A), read-out: IC50 (SVG p12), fresh solutions (A)", "value": "6.1 ± 0.4", "unit": "µM"}, {"measurement": "IC50", "setting": "[1]; fresh solutions added to cells within 1 min (A), read-out: IC50 (T98G), fresh solutions (A)", "value": "31 ± 1", "unit": "µM"}]}]}
